Laboratory results as given in patent US20240148733A1, “COMBINATION THERAPY” (Genentech, Inc., priority 2021, published 2024).

Key:
Type in all cases: cell-based
[1] = system: cells resistant to Compound K2; test: Soft agar 3D culture; details: combination with Compound K2 (a KRAS inhibitor); 11-14 day incubation; Gelcount cell counting
Protocol: Two heat blocks (1× without blocks, 1× with 50 ml tube block) were heated to 44° C. Flat-bottom 96-well non-tissue culture treated assay plates (Falcon 353219) and fluid reservoirs were kept at 37° C. 2×RPMI+20% FCS (which can be stored at 4° C.) were made and warmed to 37° C. 100 ml 1.2% agarose and 0.58% agarose solution was made by adding […] sterile water to a sterile 500 ml bottle and then carefully adding 1.2 gram/0.58 gram agarose (using normal out-of-the-hood weight), avoiding bubbles, foam, and sticking of undiluted agarose to walls as much as possible. The solution was then microwaved until fully dissolved and bubbling. The solution was then cooled for 10-15 minutes at room temperature and incubated at 37° C. The solution can be stored at room temperature for future use.
For each plate, 2 ml 1.2% agarose was mixed with 2 ml 2×RPMI+20% FCS in a 50 ml tube in a heat block by swirling the tube (minimizing pipetting up and down, as this cools the agarose too much). By double-tap (pipet is pushed in completely, liquid is taken up, then pushed out until first stop only), 40 μl 1.2% agarose/96-well was added, excluding edge 96-wells. The agarose was set at “waterpas” level and stored at 4° C. until further use. 1.2% agarose-containing plate was placed on ice for 10 minutes before plating cells.
Cells were trypsinized and counted. […]

H2122 cells (KRAS G12C) = test: Drug combination assay (CellTiter-Glo cell viability); details: six days, 384-wells
Protocol: (§1) Cells were seeded in either 96-well or 384-well plates 16 h before treatment at a density of 1000 cells per well. Then, cells were treated with varying concentrations of compound(s) as indicated in FIGS. 1-8 (384-wells) and FIGS. 10-105 (96-wells), either a single agent or in combination, for six days. The relative number of viable cells was estimated using CellTiter-Glo Luminescent Cell Viability Assay (Promega, G7573). Total luminescence was detected on a Wallac Multilabel Reader (Perkin-Elmer).

[2] = system: H358 resistant cells (KRAS G12C); test: as above; details: six days, 96-wells
Protocol: as §1

H2030 cells (KRAS G12C) = test: as above; details: six days, 96-wells
Protocol: as §1

[3] = system: H358 parental cells (KRAS G12C); test: as above; details: six days, 96-wells
Protocol: as §1

[4] = combination with Compound K1 (a KRAS inhibitor)
[5] = combination with Compound K2 (a KRAS inhibitor)
[6] = combination with Compound K3 (a KRAS inhibitor)
[7] = combination with Compound K4 (a KRAS inhibitor)

C=CC(=O)Nc1cc2c(c(-c3ccc(C(C)C)cc3)c1)OCC2 [Compound T2, N-(7-(4-isopropylphenyl)-2,3-dihydrobenzofuran-5-yl)acrylamide]
soft agar 3D culture growth [1]: sensitizes cells resistant to Compound K2
% inhibition of H2122 cells (KRAS G12C) (H2122 cells (KRAS G12C); [4]): sensitizes cells resistant to Compound K1
% inhibition of H2122 cells (KRAS G12C) (H2122 cells (KRAS G12C); [5]): sensitizes cells resistant to Compound K2

C=CC(=O)Nc1cnc(OC)c(/C=C/[C@H]2CC[C@H](C(F)(F)F)CC2)c1 [Compound T3, N-(6-methoxy-5-((E)-2-((1r,4r)-4-(trifluoromethyl)cyclohexyl)vinyl)pyridin-3-yl)acrylamide]
combination effect on cell viability (qualitative) [2, 4]: sensitizes cells resistant to Compound K1
combination effect on cell viability (qualitative) [2, 5]: sensitizes cells resistant to Compound K2
combination effect on cell viability (qualitative) [2, 6]: sensitizes cells resistant to Compound K3
combination effect on cell viability (qualitative) [2, 7]: sensitizes cells resistant to Compound K4
% inhibition of H2122 cells (KRAS G12C) (H2122 cells (KRAS G12C); [4]): sensitizes cells resistant to Compound K1
% inhibition of H2122 cells (KRAS G12C) (H2122 cells (KRAS G12C); [5]): sensitizes cells resistant to Compound K2
% inhibition of H2030 cells (KRAS G12C) (H2030 cells (KRAS G12C); [4]): sensitizes cells resistant to Compound K1
% inhibition of H2030 cells (KRAS G12C) (H2030 cells (KRAS G12C); [5]): sensitizes cells resistant to Compound K2
% inhibition of H2030 cells (KRAS G12C) (H2030 cells (KRAS G12C); [6]): sensitizes cells resistant to Compound K3
% inhibition of H2030 cells (KRAS G12C) (H2030 cells (KRAS G12C); [7]): sensitizes cells resistant to Compound K4
% inhibition of H358 parental cells (KRAS G12C) [3, 4]: sensitizes cells resistant to Compound K1
% inhibition of H358 parental cells (KRAS G12C) [3, 5]: sensitizes cells resistant to Compound K2
% inhibition of H358 parental cells (KRAS G12C) [3, 6]: sensitizes cells resistant to Compound K3
% inhibition of H358 parental cells (KRAS G12C) [3, 7]: sensitizes cells resistant to Compound K4

C=C(CNc1cc(-c2ccc(C(C)C)cc2)c2c(c1C#N)CCO2)C(=O)O [Compound T4, 2-(((4-cyano-7-(4-isopropylphenyl)-2,3-dihydrobenzofuran-5-yl)amino)methyl)acrylic acid]
% inhibition of H2122 cells (KRAS G12C) (H2122 cells (KRAS G12C); [4]): sensitizes cells resistant to Compound K1
% inhibition of H2122 cells (KRAS G12C) (H2122 cells (KRAS G12C); [5]): sensitizes cells resistant to Compound K2

Cn1cc2c3cc(C(=O)O)ccc3n(-c3ccc(C(F)(F)F)cc3)c2n1 [Compound T10]
combination effect on cell viability (qualitative) [2, 4]: sensitizes cells resistant to Compound K1
combination effect on cell viability (qualitative) [2, 5]: sensitizes cells resistant to Compound K2
combination effect on cell viability (qualitative) [2, 6]: sensitizes cells resistant to Compound K3
combination effect on cell viability (qualitative) [2, 7]: sensitizes cells resistant to Compound K4
% inhibition of H2030 cells (KRAS G12C) (H2030 cells (KRAS G12C); [4]): sensitizes cells resistant to Compound K1
% inhibition of H2030 cells (KRAS G12C) (H2030 cells (KRAS G12C); [5]): sensitizes cells resistant to Compound K2
% inhibition of H2030 cells (KRAS G12C) (H2030 cells (KRAS G12C); [6]): sensitizes cells resistant to Compound K3
% inhibition of H2030 cells (KRAS G12C) (H2030 cells (KRAS G12C); [7]): sensitizes cells resistant to Compound K4
% inhibition of H358 parental cells (KRAS G12C) [3, 4]: sensitizes cells resistant to Compound K1
% inhibition of H358 parental cells (KRAS G12C) [3, 5]: sensitizes cells resistant to Compound K2
% inhibition of H358 parental cells (KRAS G12C) [3, 6]: sensitizes cells resistant to Compound K3
% inhibition of H358 parental cells (KRAS G12C) [3, 7]: sensitizes cells resistant to Compound K4
